Test results: US20060189679A1, “C10 cyclopropyl ester substituted taxane compositions” (priority 2005, published 2006)
“And” between values parts separate entries of the source, which are not always exact repeats. Identical values can stand only once. Like-named read-outs stand apart in the source and are kept apart here.

Experiments:
[1] = system: 1A9 ovarian carcinoma cells; experiment: In vitro cytotoxic activity (MTT, 72 hr); assay type: cell-based, human; conditions: unit not given (dilutions in nM), read-out: In Vitro Antitumor Activity (IC50)
[2] = system: HCT116 human colon carcinoma cells; experiment: Cell cycle and apoptotic analyses (propidium iodide flow cytometry); assay type: cell-based; conditions: HCT-116 cells, 24 hr exposure
[3] = system: DLD-1 multi-drug resistant human colon carcinoma xenografts; conditions: for MDS to 2.0 g ± SEM (n): DLD1-e07 study; for antitumor activity: DLD e07, optimum dose, route (IV) and schedule; for # Death NTR (Non-Treatment Related) / # Death TR (Treatment Related): mouse, in vivo
[4] = system: DLD-1 resistant colon carcinoma cells (overexpresses p-glycoprotein); experiment: In vitro cytotoxic activity (MTT, 72 hr); assay type: cell-based, human; conditions: DLD-1, colon, p-glycoprotein resistance, unit not given (dilutions in nM), read-out: In Vitro Antitumor Activity (IC50)
[5] = system: HT-29 colon carcinoma cells; experiment: In vitro cytotoxic activity (MTT, 72 hr); assay type: cell-based, human; conditions: unit not given (dilutions in nM), read-out: In Vitro Antitumor Activity (IC50)
[6] = system: 1A9-PTX10 paclitaxel resistant ovarian carcinoma cells (tubulin mutation); experiment: In vitro cytotoxic activity (MTT, 72 hr); assay type: cell-based, human; conditions: for IC50: 1A9-PTX10, ovarian, tubulin mutation, MTT 72 hr, unit not given (dilutions in nM), read-out: In Vitro Antitumor Activity (IC50)
[7] = system: 786-0 human renal carcinoma xenografts; conditions: for Median survival / Median survival Ratio: iv
[8] = system: LnCaP prostate carcinoma cells; experiment: In vitro cytotoxic activity (MTT, 72 hr); assay type: cell-based, human; conditions: unit not given (dilutions in nM), read-out: In Vitro Antitumor Activity (IC50)
[9] = system: PANC-1 pancreatic adenocarcinoma cells; experiment: In vitro cytotoxic activity (MTT, 72 hr); assay type: cell-based, human; conditions: unit not given (dilutions in nM), read-out: In Vitro Antitumor Activity (IC50)
[10] = system: HCT-116 colon carcinoma cells; experiment: In vitro cytotoxic activity (MTT, 72 hr); assay type: cell-based, human; conditions: unit not given (dilutions in nM), read-out: In Vitro Antitumor Activity (IC50)
[11] = Toxicity profile on oral and IV dosing in rats; conditions: dosed both orally and IV
[12] = system: PC-3 prostate carcinoma cells; experiment: In vitro cytotoxic activity (MTT, 72 hr); assay type: cell-based, human; conditions: unit not given (dilutions in nM), read-out: In Vitro Antitumor Activity (IC50)
[13] = system: 1A9-PTX22 paclitaxel resistant ovarian carcinoma cells (tubulin mutation); experiment: In vitro cytotoxic activity (MTT, 72 hr); assay type: cell-based, human; conditions: for IC50: 1A9-PTX22, ovarian, tubulin mutation, MTT 72 hr, unit not given (dilutions in nM), read-out: In Vitro Antitumor Activity (IC50)
[14] = system: SW480 human colon carcinoma xenografts; conditions: mouse, in vivo; for controlling tumor growth compared to the lower doses of compound 3102: iv
[15] = Homo sapiens, Ovarian carcinoma cell
[16] = IV QWK × 3 25 mg/kg vs 5% EC in Saline PO Q4D × 4
[17] = IV QWK × 3 30 mg/kg vs 5% EC in Saline PO Q4D × 4

CC(=O)O[C@@]12CO[C@@H]1C[C@H](O)[C@@]1(C)C(=O)[C@H](OC(=O)C3CC3)C3=C(C)[C@@H](OC(=O)[C@H](O)[C@@H](NC(=O)OCC(C)C)c4ccco4)C[C@@](O)([C@@H](OC(=O)c4ccccc4)C12)C3(C)C (stereo partly drawn) [Compound 3102]
IC50 [1, 15]: 1.6 nM
Apoptotic (percentage of cells in sub G1 peak) ([2]; 10 nM): 24.4%
G1 (percentage of cells) ([2]; 10 nM): 20.1%
G2/M (percentage of cells) ([2]; 10 nM): 27.3%
S (percentage of cells) ([2]; 10 nM): 23.9%
Apoptotic (percentage of cells in sub G1 peak) ([2]; 100 nM): 11.7%
G1 (percentage of cells) ([2]; 100 nM): 7.0%
G2/M (percentage of cells) ([2]; 100 nM): 74.0%
S (percentage of cells) ([2]; 100 nM): 7.1%
MDS to 2.0 g ± SEM (n) ([3]; 30 mg/kg IV Q4D × 4): 45.3 ± 4.6
MDS to 2.0 g ± SEM (n) ([3]; 50 mg/kg PO Q4D × 4): 47.1 ± 3.9
MDS to 2.0 g ± SEM (n) ([3]; 70 mg/kg PO Q4D × 4): 46.1 ± 3.5
MDS to 2.0 g ± SEM (n) ([3]; 80 mg/kg PO Q4D × 4): 53.8±
IC50 ([4]; Homo sapiens): 1.9 nM
IC50 ([5]; Homo sapiens): 1.2 nM
potency compared to that of paclitaxel ([6]; 1A9-PTX10 (sentence covers 1A9-PTX10 and 1A9-PTX22)): 4 to 8 fold
IC50 ([6]; Homo sapiens, 1A9/ptx-10): 5.2 nM
Logrank Test Chi square ([7]; IV Q4D × 4 30 mg/kg vs 5% EC in Saline PO Q4D × 4): 5.459
Logrank Test Chi square ([7]; PO Q4D × 4 50 mg/kg vs 5% EC in Saline PO Q4D × 4): 1.972
Logrank Test Chi square ([7]; PO Q4D × 4 70 mg/kg vs 5% EC in Saline PO Q4D × 4): 0.2502
Logrank Test Chi square ([7]; PO Q4D × 4 80 mg/kg vs 5% EC in Saline PO Q4D × 4): 5.234
IC50 ([8]; Homo sapiens): 2.6 nM
IC50 ([9]; Homo sapiens): 1.8 nM
IC50 ([10]; Homo sapiens): 0.9 nM
toxicity profile [11]: favorable toxicity profile
IC50 ([12]; Homo sapiens): 1.8 nM
potency compared to that of paclitaxel ([13]; 1A9-PTX22 (sentence covers 1A9-PTX10 and 1A9-PTX22)): 4 to 8 fold
IC50 ([13]; Homo sapiens, 1A9/ptx-22): 8.5 nM
treatment related death [14]: One

CC(=O)O[C@H]1C(=O)[C@@]2(C)[C@H]([C@H](OC(=O)c3ccccc3)[C@]3(O)C[C@H](OC(=O)[C@H](O)[C@@H](NC(=O)c4ccccc4)c4ccccc4)C(C)=C1C3(C)C)[C@]1(OC(C)=O)CO[C@@H]1C[C@@H]2O [Paclitaxel, paclitaxel]
IC50 [1, 15]: 2.5 nM
Apoptotic (percentage of cells in sub G1 peak) ([2]; 10 nM): 24.0%
G1 (percentage of cells) ([2]; 10 nM): 31.1%
G2/M (percentage of cells) ([2]; 10 nM): 17.8%
S (percentage of cells) ([2]; 10 nM): 25.0%
Apoptotic (percentage of cells in sub G1 peak) ([2]; 100 nM): 15.3%
G1 (percentage of cells) ([2]; 100 nM): 7.0%
G2/M (percentage of cells) ([2]; 100 nM): 67.2%
S (percentage of cells) ([2]; 100 nM): 9.4%
MDS to 2.0 g ± SEM (n) ([3]; 30 mg/kg IV QOD × 5): 40.2 ± 4.7
antitumor activity [3]: failed to demonstrate significant antitumor activity against DLD-1 tumors
# Death NTR (Non-Treatment Related) [3]: 0
# Death TR (Treatment Related) ([3]; nude): 0
IC50 ([4]; Homo sapiens): > 10 nM
IC50 ([5]; Homo sapiens): 2.6 nM
IC50 ([6]; Homo sapiens, 1A9/ptx-10): > 40 nM
slowing of tumor growth vs control (statistical analysis, words) ([7]; 786-0 e89, optimum dose, route (IV) and schedule): did not appear to significantly slow the growth of tumors compared to control
Logrank Test Chi square ([7]; IV QOD × 5 30 mg/kg vs 5% EC in Saline PO Q4D × 4): 3.414
# Death NTR (Non-Treatment Related) ([7]; mouse, in vivo): 0
# Death TR (Treatment Related) ([7]; mouse, in vivo): 0
Day of Max. % BW Loss ([7]; mouse, in vivo): Day 13
MDS to 2.0 g ± SEM (n) ([7]; mouse, in vivo): 40.0 ± 6.6
Max. % BW Loss ([7]; mouse, in vivo): −7.6%;
Are the survival curves sig different? ([7]; mouse, in vivo, 30 mg/kg): No
Median survival ([7]; mouse, in vivo, 30 mg/kg): 51.15
IC50 ([8]; Homo sapiens): 3.1 nM
IC50 ([9]; Homo sapiens): 4.2 nM
IC50 ([12]; Homo sapiens): 4.1 nM
IC50 ([13]; Homo sapiens, 1A9/ptx-22): > 30 nM
# Death NTR (Non-Treatment Related) [14]: 0
# Death TR (Treatment Related) [14]: 0
MDS to 2.0 g ± SEM (n) [14]: 26.2 ± 3.0
controlling tumor growth compared to the lower doses of compound 3102 [14]: as effective or slightly less effective in controlling tumor growth

docetaxel
IC50 [1]: 1.8 nM
Apoptotic (percentage of cells in sub G1 peak) ([2]; 10 nM): 44.1%
G1 (percentage of cells) ([2]; 10 nM): 10.4%
G2/M (percentage of cells) ([2]; 10 nM): 17.1%
S (percentage of cells) ([2]; 10 nM): 25.4%
Apoptotic (percentage of cells in sub G1 peak) ([2]; 100 nM): 14.4%
G1 (percentage of cells) ([2]; 100 nM): 4.0%
G2/M (percentage of cells) ([2]; 100 nM): 68.0%
S (percentage of cells) ([2]; 100 nM): 11.6%
MDS to 2.0 g ± SEM (n) ([3]; 25 mg/kg IV Q7D × 3): 35.0 ± 2.3
MDS to 2.0 g ± SEM (n) ([3]; 30 mg/kg IV Q7D × 3): 37.6 ± 6.5
antitumor activity [3]: failed to demonstrate significant antitumor activity against DLD-1 tumors
# Death NTR (Non-Treatment Related) [3]: 0
# Death TR (Treatment Related) [3]: 0
IC50 [4]: 9.2 nM
IC50 [5]: 1.2 nM
IC50 [6]: 7 nM
Hazard Ratio [7, 16]: 2.967
Logrank Test Chi square [7, 16]: 4.859
Hazard Ratio [7, 17]: 3.39
Logrank Test Chi square [7, 17]: 5.271
# Death TR (Treatment Related) ([7]; mouse, in vivo): 0
MDS to 2.0 g ± SEM (n) ([7]; mouse, in vivo): 52.1 ± 4.7 and 49.3 ± 4.3
slowing of tumor growth vs vehicle control (statistical analysis, words) ([7]; mouse, in vivo): able to slow 786-0 tumor growth compared to the vehicle control
Are the survival curves sig different? ([7]; mouse, in vivo, 25 mg/kg): Yes
Are the survival curves sig different? ([7]; mouse, in vivo, 30 mg/kg): Yes
Median survival ([7]; mouse, in vivo, 25 mg/kg): 52.7
Median survival Ratio ([7]; mouse, in vivo, 25 mg/kg): 0.704
Median survival ([7]; mouse, in vivo, 30 mg/kg): 52
Median survival Ratio ([7]; mouse, in vivo, 30 mg/kg): 0.7135
IC50 [8]: 1.9 nM
IC50 [9]: 2 nM
IC50 [10]: 0.9 nM
IC50 [12]: 2.8 nM
IC50 [13]: 8.5 nM
MDS to 2.0 g ± SEM (n) [14]: 29.0 ± 7.8 and 32.4 ± 4.1
non-treatment related death [14]: one
non-treatment related deaths [14]: two
treatment related death [14]: one
controlling tumor growth compared to the lower doses of compound 3102 [14]: as effective or slightly less effective in controlling tumor growth
